Among the data in patent US7326703B2, “(1,10B-Dihydro-2-(aminocarbonyl-phenyl)-5H-pyrazolo[1,5-c][1,3]benzoxazin-5-yl)phenyl methanone derivatives as HIV viral replication inhibitors” (priority 2004, dated 2008) are EC50 values, retold here.

One experiment concerns HIV-1-MDR. Kind of experiment: Cellular anti-viral assay in MT4-LTR-EGFP cells, multi-drug resistant HIV-1 virus. Format: cell-based. Conditions: Human immunodeficiency virus 1, 72 h, read-out: Activity class for HIV-1-MDR test. The method, then: (§1) The compounds were tested in a cellular assay using the MT4-LTR-EGFP cells for anti-viral activity. […] The cellular assay was performed according to the following procedure.
(§2) HIV- or mock-infected MT4-LTR-EGFP cells were incubated for three days in the presence of various concentrations of the inhibitor. Upon infection, the GFP reporter is activated by the viral tat protein. At the end of the incubation period, the GFP signal was measured. In the virus control samples (in the absence of any inhibitor) the maximal fluorescent signal was obtained. The inhibitory activity of the compound was monitored on the virus-infected cells and was expressed as EC50 and EC90. These values represent the amount of the compound required to protect 50% and 90%, respectively, of the cells from virus infection. The toxicity of the compound was measured on the mock-infected cells and was expressed as CC50, which represents the concentration of compound required to inhibit the growth of the cells by 50%. The selectivity index (SI) (ratio CC50/EC50) is an indication of the selectivity of the anti-HIV activity of the inhibitor.

A further experiment has as its system HIV-1 strain LAI. Kind of experiment: Cellular anti-viral assay in MT4-LTR-EGFP cells, wild type HIV-1 strain LAI. The format is cell-based. Conditions: Human immunodeficiency virus 1, 72 h; MT4-LTR-EGFP cells, three days incubation, GFP signal; average EC50 used where more than one run; read-out: Activity class for HIV-1-LAI test. The method, then: as §1, §2

The structures appear in SMILES notation.

Take `CN(C)CCCNC(=O)c1ccc(C2=NN3C(C(=O)c4ccc(Br)cc4)Oc4ccccc4C3C2)cc1` (stereo not shown) [Compound 9]: the EC50 in the experiment on HIV-1-MDR was more than 10 µM; with HIV-1 strain LAI it was less than 1 µM.
The corresponding values for `CN(C)c1ccc(NC(=O)c2ccc(C3=NN4C(C(=O)c5ccc(F)cc5)Oc5ccccc5C4C3)cc2)cc1` (stereo not shown) [Compound 27] are less than 1 µM and less than 1 µM.
As to `COc1ccccc1CNC(=O)c1ccc(C2=NN3C(C(=O)c4ccc(F)cc4)Oc4ccccc4C3C2)cc1` (stereo not shown) [Compound 23], the EC50 with HIV-1-MDR and with HIV-1 strain LAI was more than 10 µM in each case.
Consider `O=C(NC1CCCCC1)c1ccc(C2=NN3C(C(=O)c4ccc(F)cc4)Oc4ccccc4C3C2)cc1` (stereo not shown) [Compound 1], for which the EC50 with HIV-1-MDR was more than 10 µM; in the experiment with HIV-1 strain LAI, 1 to 10 µM.
The matching figures for `CC(C)(C)c1ccc(C(=O)C2Oc3ccccc3C3CC(c4ccc(C(=O)NC5CCCC5)cc4)=NN23)cc1` (stereo not shown) [Compound 50]: less than 1 µM and less than 1 µM.
The corresponding values for `CC(C)CC(C)NC(=O)c1ccc(C2=NN3C(C(=O)c4ccc(F)cc4)Oc4ccccc4C3C2)cc1` (stereo not shown) [Compound 22] are more than 10 µM and less than 1 µM.
The matching figures for `COc1cccc(CNC(=O)c2ccc(C3=NN4C(C(=O)c5ccc(F)cc5)Oc5ccccc5C4C3)cc2)c1` (stereo not shown) [Compound 24]: 1 to 10 µM and 1 to 10 µM.
For `O=C(NCCc1ccccn1)c1ccc(C2=NN3C(C(=O)c4ccc(F)cc4)Oc4ccccc4C3C2)cc1` (stereo not shown) [Compound 19], the EC50 with HIV-1-MDR is more than 10 µM; in the experiment on HIV-1 strain LAI, 1 to 10 µM.
